Consider 2 compounds from patent publication US20090221588A1, “FUNGICIDAL COMPOSITIONS” (SYNGENTA CROP PROTECTION, INC., priority 2006, published 2009).

In assay [1] the test system is Septoria tritici. In words: Action against Septoria tritici: growth inhibition in nutrient broth, microtiter plate, photometric. The class given is cell-based. The following applies: single active ingredient, 24° C., 72 hrs. The text has this:
(§1) The action to be expected E for a given active ingredient combination obeys the so-called COLBY formula and can be calculated as follows (COLBY, S. R. “Calculating synergistic and antagonistic responses of herbicide combination”. Weeds, Vol. 15, pages 20-22; 1967): ppm=milligrams of active ingredient (=a.i.) per liter of spray mixture X=% action by active ingredient A) using p ppm of active ingredient Y=% action by active ingredient B) using q ppm of active ingredient. According to COLBY, the expected (additive) action of active ingredients A)+B) using p+q ppm of active ingredient is If the action actually observed (O) is greater than the expected action (E), then the action of the combination is super-additive, i.e. there is a synergistic effect. In mathematical terms, synergism corresponds to a positive value for the difference of (O-E). In the case of purely complementary addition of activities (expected activity), said difference (O-E) is zero. A negative value of said difference (O-E) signals a loss of activity compared to the expected activity. In the following examples a specific compound of formula (I) was used. Said compound of formula (I) was a mixture of the racemic syn- and anti-compound of formula (I), in a syn/anti-ratio of 9:1. Conidia of the fungus from cryogenic storage are directly mixed into nutrient broth (PDB potato dextrose broth). After placing a (DMSO) solution of the test compounds into a microtiter plate (96-well format) the nutrient broth containing the fungal spores is added. […] The fungicide interactions in the combinations are calculated according to COLBY method.

Assay [2] concerns Pseudocercosporella herpotrichoides var. acuformis. In words: Action against Pseudocercosporella herpotrichoides var. acuformis (eyespot/cereals): growth inhibition in nutrient broth, microtiter plate, photometric. The class given is cell-based. Particulars: single active ingredient, 24° C., 72 hrs.
Description: as §1

Regarding `CC(C)C1C2CCC1c1c(NC(=O)c3cn(C)nc3C(F)F)cccc12` (racemic) [Cpd I, 3-difluoromethyl-1-methyl-1H-pyrazole-4-carboxylic acid (9-isopropyl-1,2,3,4-tetrahydro-1,4-methano-naphthalen-5-yl)-amide], the “Observed control in % (% Cobs)” value in assay [1] (0.063 ppm [mg/L] final medium) was determined as 26%; in assay [1] (0.125 ppm [mg/L] final medium), 52%; in assay [2] (0.016 ppm [mg/L] final medium), 12%; in assay [2] (0.031 ppm [mg/L] final medium) it was 40%; in assay [2] (0.063 ppm [mg/L] final medium), 67%.
`O=C(NCCc1ncc(C(F)(F)F)cc1Cl)c1ccccc1C(F)(F)F` [Cpd B-1.1, fluopyram]: the “Observed control in % (% Cobs)” value worked out at 6% in assay [1] (0.063 ppm [mg/L] final medium); 0% in assay [1] (0.125 ppm [mg/L] final medium); 1% in assay [2] (0.016 ppm [mg/L] final medium); 3% in assay [2] (0.031 ppm [mg/L] final medium); 14% in assay [2] (0.063 ppm [mg/L] final medium).
